For three compounds, Ki results are on record in US8426408B2, “Pyrimidine inhibitors of kinases” (AbbVie Inc., priority 2009, dated 2013).

The target of assay [1] is T1, Aurora A (Homo sapiens, UniProt O14965).
T1 sequence (O14965 1-403): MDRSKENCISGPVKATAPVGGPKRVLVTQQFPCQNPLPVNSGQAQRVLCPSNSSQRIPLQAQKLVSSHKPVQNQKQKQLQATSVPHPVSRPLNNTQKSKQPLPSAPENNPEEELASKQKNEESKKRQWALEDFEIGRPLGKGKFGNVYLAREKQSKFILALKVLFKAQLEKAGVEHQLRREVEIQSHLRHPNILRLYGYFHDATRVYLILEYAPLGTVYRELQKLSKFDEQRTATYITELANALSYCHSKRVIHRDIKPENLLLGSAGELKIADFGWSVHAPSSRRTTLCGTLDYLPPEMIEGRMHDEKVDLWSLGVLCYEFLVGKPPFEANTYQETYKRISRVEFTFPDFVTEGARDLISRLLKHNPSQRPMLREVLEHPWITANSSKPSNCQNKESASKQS
As to the kind of experiment: Aurora A enzyme inhibition (time-resolved fluorescence, STK substrate-2). Particulars: 1 mM ATP. It counts as biochemical. The method, boiled down: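 Active enzyme incubated 1 h with biotinylated STK substrate-2, 1 mM ATP and inhibitor in Hepes pH 7.4 with MgCl2, orthovanadate and Triton X-100. EDTA stop; phosphopeptide detected by Eu-cryptate anti-phospho-STK/SA-XL665 TR-FRET (665/615 nm ratio); IC50 by exponential fit.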

For assay [2], the target named is KDR (Homo sapiens, UniProt P35968). Description: KDR HTRF in vitro kinase assay. It counts as biochemical. More on the design: purified enzyme (His6-KDR 789-1354, MW 63 kD); His6 (N). Particulars: 1 mM ATP; read-out: KDR enzyme inhibition data (Ki). The method, boiled down:
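His6-KDR 789-1354 (7 ng/well) with 0.5 μM biotinylated peptide substrate and 1 mM ATP in HEPES pH 7.1, MgCl2/MnCl2, 60 min at room temperature. EDTA-quenched, detected by streptavidin-XL-665 plus Eu-kryptate anti-phosphotyrosine HTRF after 3 h; IC50 from 620/665 nm ratio.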
On the technique in general: In TR-FRET formats the signal depends on donor and acceptor labels being close together.

Chain of KDR (P35968 789-1354): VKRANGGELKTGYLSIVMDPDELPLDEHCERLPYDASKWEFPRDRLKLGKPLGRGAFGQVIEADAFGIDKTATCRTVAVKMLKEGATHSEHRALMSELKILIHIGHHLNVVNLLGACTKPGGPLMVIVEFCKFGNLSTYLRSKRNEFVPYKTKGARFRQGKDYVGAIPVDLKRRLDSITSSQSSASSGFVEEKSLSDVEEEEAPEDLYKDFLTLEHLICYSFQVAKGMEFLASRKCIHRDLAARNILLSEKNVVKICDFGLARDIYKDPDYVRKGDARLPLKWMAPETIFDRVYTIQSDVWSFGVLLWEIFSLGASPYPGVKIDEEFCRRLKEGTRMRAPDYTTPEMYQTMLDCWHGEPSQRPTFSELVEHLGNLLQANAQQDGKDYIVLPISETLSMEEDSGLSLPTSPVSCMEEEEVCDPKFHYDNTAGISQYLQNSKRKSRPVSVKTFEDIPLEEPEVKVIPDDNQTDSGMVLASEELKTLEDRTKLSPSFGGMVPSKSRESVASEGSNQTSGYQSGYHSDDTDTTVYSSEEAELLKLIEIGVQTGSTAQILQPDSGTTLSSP

As for `NC(=O)[C@@H]1[C@H](Nc2nc(Nc3cnn(Cc4ccc5ccccc5c4)c3)ncc2Cl)[C@H]2C=C[C@@H]1C2` [Example 179, (1S,2S,3R,4R)-3-[(5-chloro-2-{[1-(2-naphthylmethyl)-1H-pyrazol-4-yl]amino}pyrimidin-4-yl)amino]bicyclo[2.2.1]hept-5-ene-2-carboxamide], the Ki in assay [1] and in assay [2] was less than 100 nM each time.

`COc1ccc(Cn2cc(Nc3ncc(Cl)c(N[C@H]4[C@@H](C(N)=O)[C@@H]5C=C[C@H]4C5)n3)cn2)cc1F` [Example 192, (1S,2S,3R,4R)-3-[(5-chloro-2-{[1-(3-fluoro-4-methoxybenzyl)-1H-pyrazol-4-yl]amino}pyrimidin-4-yl)amino]bicyclo[2.2.1]hept-5-ene-2-carboxamide]: the Ki in assay [1] and in assay [2] was less than 100 nM throughout.

With “(1S,2R)-2-{[5-chloro-2-({1-[2-(morpholin-4-yl)ethyl]-1H-pyrazol-4-yl}amino)pyrimidin-4-yl]amino}cyclopentanecarboxamide and (1R,2S)-2-{[5-chloro-2-({1-[2-(morpholin-4-yl)ethyl]-1H-pyrazol-4-yl}amino)pyrimidin-4-yl]amino}cyclopentanecarboxamide [Example 137]”, the inhibition constant (Ki) in assay [1] and in assay [2] was less than 100 nM each time.

Broadly, the Ki is a dissociation constant, usually derived from enzyme kinetics or from competition with a known ligand.
